± gives the uncertainty stated by the source.
Assay: xn = mol fraction of the nth substance listed

O=S1(=O)CCCC1 + Cc1cccc(C)c1
viscosity [mPa·s], 101.3 kPa
Settings	x2 = 0.1117	x2 = 0.2206	x2 = 0.3267	x2 = 0.4301	x2 = 0.531	x2 = 0.6294	x2 = 0.7254	x2 = 0.8191	x2 = 0.9106
303.15 K	6.231 ± 0.13	4.214 ± 0.095	2.961 ± 0.068	2.171 ± 0.051	1.65 ± 0.039	1.275 ± 0.031	1.007 ± 0.025	0.7887 ± 0.02	0.6551 ± 0.017
323.15 K	4.014 ± 0.09	2.798 ± 0.064	2.042 ± 0.048	1.543 ± 0.037	1.204 ± 0.029	0.9507 ± 0.024	0.7638 ± 0.02	0.6203 ± 0.017	0.5221 ± 0.015

Nc1ccccc1Cl + Cc1cccc(Cl)c1
viscosity [mPa·s], 101 kPa
Settings	x1 = 0.1012	x1 = 0.2056	x1 = 0.3125	x1 = 0.4056	x1 = 0.5026	x1 = 0.6025	x1 = 0.7145	x1 = 0.818	x1 = 0.91
303.15 K	0.9087 ± 0.023	1.109 ± 0.027	1.348 ± 0.032	1.587 ± 0.038	1.867 ± 0.044	2.19 ± 0.051	2.595 ± 0.06	3.009 ± 0.069	3.408 ± 0.077
308.15 K	0.8581 ± 0.022	1.047 ± 0.026	1.269 ± 0.031	1.489 ± 0.036	1.743 ± 0.041	2.032 ± 0.047	2.386 ± 0.055	2.74 ± 0.063	3.073 ± 0.07
313.15 K	0.812 ± 0.022	0.99 ± 0.025	1.199 ± 0.029	1.402 ± 0.034	1.634 ± 0.039	1.893 ± 0.044	2.205 ± 0.051	2.507 ± 0.058	2.786 ± 0.064
318.15 K	0.7685 ± 0.021	0.9398 ± 0.024	1.138 ± 0.028	1.329 ± 0.032	1.544 ± 0.037	1.78 ± 0.042	2.056 ± 0.048	2.316 ± 0.053	2.545 ± 0.059

Cc1ccc(O)cc1 + Cc1cccc(O)c1
Settings	viscosity [mPa·s]
298.15 K, 101 kPa, x2 = 0.1388	14.5 ± 0.23
298.15 K, 101 kPa, x2 = 0.2461	14.32 ± 0.23
298.15 K, 101 kPa, x2 = 0.3003	14.25 ± 0.23
298.15 K, 101 kPa, x2 = 0.452	14 ± 0.22
298.15 K, 101 kPa, x2 = 0.4823	13.93 ± 0.22
298.15 K, 101 kPa, x2 = 0.5521	13.85 ± 0.22
298.15 K, 101 kPa, x2 = 0.6238	13.73 ± 0.22
298.15 K, 101 kPa, x2 = 0.6733	13.69 ± 0.22
298.15 K, 101 kPa, x2 = 0.7071	13.61 ± 0.21
298.15 K, 101 kPa, x2 = 0.7373	13.6 ± 0.21
298.15 K, 101 kPa, x2 = 0.8267	13.52 ± 0.21
298.15 K, 101 kPa, x2 = 0.9135	13.46 ± 0.21
313.15 K, 101.3 kPa, x2 = 0.1	6.798 ± 0.13
313.15 K, 101.3 kPa, x2 = 0.2	6.861 ± 0.092
313.15 K, 101.3 kPa, x2 = 0.3	6.878 ± 0.083
313.15 K, 101.3 kPa, x2 = 0.4	6.855 ± 0.1
313.15 K, 101.3 kPa, x2 = 0.5	6.75 ± 0.14
313.15 K, 101.3 kPa, x2 = 0.6	6.625 ± 0.13
313.15 K, 101.3 kPa, x2 = 0.7	6.547 ± 0.13
313.15 K, 101.3 kPa, x2 = 0.8	6.409 ± 0.14
313.15 K, 101.3 kPa, x2 = 0.9	6.321 ± 0.11
323.15 K, 101.3 kPa, x2 = 0.1	4.564 ± 0.1
323.15 K, 101.3 kPa, x2 = 0.2	4.653 ± 0.073
323.15 K, 101.3 kPa, x2 = 0.3	4.653 ± 0.06
323.15 K, 101.3 kPa, x2 = 0.4	4.618 ± 0.08
323.15 K, 101.3 kPa, x2 = 0.5	4.54 ± 0.11
323.15 K, 101.3 kPa, x2 = 0.6	4.439 ± 0.12
323.15 K, 101.3 kPa, x2 = 0.7	4.337 ± 0.11
323.15 K, 101.3 kPa, x2 = 0.8	4.246 ± 0.096
323.15 K, 101.3 kPa, x2 = 0.9	4.175 ± 0.085

CC(O)CC(C)(C)O (centres undefined) + Cc1ccccc1
viscosity [mPa·s], 101 kPa
Settings	x1 = 0.1346	x1 = 0.1954	x1 = 0.2938	x1 = 0.3816	x1 = 0.4929	x1 = 0.5952	x1 = 0.6969	x1 = 0.7998	x1 = 0.8958
308.15 K	0.6243 ± 0.063	0.7011 ± 0.07	0.8906 ± 0.089	1.182 ± 0.12	1.708 ± 0.17	2.106 ± 0.21	3.293 ± 0.33	5.905 ± 0.59	9.863 ± 0.99
318.15 K	0.4797 ± 0.048	0.5572 ± 0.056	0.739 ± 0.074	0.983 ± 0.098	1.41 ± 0.14	1.753 ± 0.18	2.719 ± 0.27	4.872 ± 0.49	8.571 ± 0.86

Cc1ccc(O)cc1 + Cc1ccccc1
308.15 K, 101 kPa
Settings	viscosity [mPa·s]
x1 = 0.0324	0.5202 ± 0.0047
x1 = 0.0983	0.5823 ± 0.0051
x1 = 0.2079	0.7295 ± 0.0062
x1 = 0.305	0.9088 ± 0.0075
x1 = 0.417	1.201 ± 0.0097
x1 = 0.58	1.867 ± 0.015
x1 = 0.6813	2.636 ± 0.02
x1 = 0.7299	3.2 ± 0.024
x1 = 0.8385	4.646 ± 0.035
x1 = 0.8532	5.08 ± 0.037
x1 = 0.9349	6.873 ± 0.047

O=S(=O)(Cl)Cl + Cc1ccccc1
298.15 K, 101 kPa
Settings	viscosity [mPa·s]
x1 = 0.207	0.5841 ± 0.015
x1 = 0.373	0.6144 ± 0.016
x1 = 0.572	0.6457 ± 0.017
x1 = 0.713	0.6642 ± 0.017
x1 = 0.826	0.6759 ± 0.017

O=S1(=O)CCCC1 + Cc1ccccc1
viscosity [mPa·s], 101.3 kPa
Settings	x2 = 0.1267	x2 = 0.2458	x2 = 0.3587	x2 = 0.4651	x2 = 0.5662	x2 = 0.6617	x2 = 0.7527	x2 = 0.8392	x2 = 0.9206
303.15 K	6.052 ± 0.13	3.95 ± 0.089	2.732 ± 0.063	2.029 ± 0.047	1.557 ± 0.037	1.173 ± 0.029	0.9289 ± 0.023	0.7548 ± 0.02	0.6265 ± 0.017
323.15 K	3.906 ± 0.088	2.662 ± 0.061	1.919 ± 0.045	1.458 ± 0.035	1.151 ± 0.028	0.8828 ± 0.022	0.7151 ± 0.019	0.5893 ± 0.016	0.4967 ± 0.014

O=S1(=O)CCCC1 + Cc1ccccc1C
viscosity [mPa·s], 101.3 kPa
Settings	x2 = 0.1118	x2 = 0.2206	x2 = 0.3267	x2 = 0.4301	x2 = 0.5311	x2 = 0.6293	x2 = 0.7254	x2 = 0.8191	x2 = 0.9105
303.15 K	6.89 ± 0.28	4.875 ± 0.21	3.582 ± 0.16	2.692 ± 0.12	2.066 ± 0.095	1.618 ± 0.076	1.243 ± 0.06	1.04 ± 0.051	0.8453 ± 0.043
323.15 K	4.358 ± 0.19	3.169 ± 0.14	2.397 ± 0.11	1.854 ± 0.086	1.456 ± 0.069	1.173 ± 0.057	0.9211 ± 0.046	0.8044 ± 0.041	0.6503 ± 0.034

Source: the CheMixHub viscosity set
